Legend:
CRMP2 = assay: Immunoblot of CRMP2 phosphorylation in CAD cells; assay type: cell-based, mouse; conditions: overnight incubation of CBD3063 (20 µM)
Method: Mouse neuron derived Cathecholamine A differentiated CAD cells (ECACC Cat #08100805, RRID: CVCL_0199) were grown in standard cell culture conditions, 37° C. in 5% (vol/vol) CO2. The cells were maintained in DMEM/F12 media supplemented with 10% (vol/vol) FBS (HyClone) and 1% penicillin/streptomycin sulfate from 10,000 μg/mL stock.
Indicated samples were loaded on 4-20% Novex gels (cat. no. XP04205BOX; Thermo Fisher Scientific, Waltham, MA). Proteins were transferred to preactivated PVDF membranes for 1 hour at 100 V using TGS [25 mM Tris, pH 8.5, 192 mM glycine, 0.1% (mass/vol) SDS], 20% (vol/vol) methanol as transfer buffer (0.45 μm; Cat #IPVH00010; Millipore Sigma, St. Louis, MO). After transfer, the membranes were blocked at room temperature for 1 hour with TBST (50 mM Tris·HCl, pH 7.4, 150 mM NaCl, 0.1% Tween 20) with 5% (mass/vol) nonfat dry milk, and then incubated overnight at 4° C. separately with indicated primary antibodies, β111-Tubulin (Cat #G7121; Promega, Madison, WI), CRMP2 (Cat #C2993; Sigma-Aldrich, St. Louis, MO), Cav2.2 (Cat #TA308673; Origene, Rockville, MD), CRMP2 pSer522 (Cat #CP2191; ECM Biosciences, Versailles, KY), and CRMP2 pThr514 (Cat #PA5-110113; Invitrogen, Waltham, MA), in TBST, 5% (mass/vol) BSA. For examining the effect of CBD3063 on CRMP2 phosphorylation state, CAD cells were treated overnight with vehicle (0.1% DMSO) or CBD3063 (20 μM) and the next day cells were lysed using RIPA buffer. Approximately 40 μg of total proteins were loaded on an SDS-PAGE and then transferred to polyvinylidene difluoride membranes and blocked at room temperature for 1 hour. Primary antibodies used for probing were CRMP2 (Cat #C2993, Sigma-Aldrich, St Louis, MO), CRMP2 pThr514 (Cat #PB-043, Kinasource, Dundee, Scotland, United Kingdom), CRMP2 pSer522 (Cat #CP2191, ECM Biosciences, Versailles, KY), and CRMP2 pT555 (Cat #CP2251, ECM Biosciences, Versailles, KY).

[1] = system: Cav1 (L-type) calcium channels; assay: Whole-cell patch-clamp, isolated L-type Ca2+ currents in DRG neurons; assay type: cell-based, rat
Method: Recordings were obtained from acutely dissociated DRG neurons as described earlier (Bellampalli et al., 2019). Patch-clamp recordings were performed at room temperature (22-24° C.). Currents were recorded using an EPC 10 Amplifier-HEKA (HEKA Elektronik, Ludwigshafen, Germany) linked to a computer with Patchmaster software. DRG neurons were incubated overnight (˜16-24 hours) with 20 μM of CBD3063.
For total calcium current (ICa^2+) recordings, the external solution consisted of the following (in mM): 110 N-methyl-D-glucamine, 10 BaCl2, 30 TEA-Cl, 10 HEPES, 10 glucose, and 0.001 TTX (pH 7.29 adjusted with TEA-OH, and mOsm/L=310). Patch pipettes were filled with an internal solution containing (in mM): 150 CsCl2, 10 HEPES, 5 Mg-ATP, and 5 BAPTA, (pH 7.2 adjusted with CsOH, and mOsm/L-305). Peak Ca^2+ current was acquired by applying 200-millisecond voltage steps from −70 to +60 mV in 10-mV increments from a holding potential of −90 mV to obtain the current-voltage (I-V) relation. To measure the different subtypes of Ca^2+ channels, DRGs were treated with a Cav inhibitor cocktail omitting the inhibitor specific to the subtype being tested (e.g., to measure Cav2.2 currents, ω-conotoxin GVIA is omitted): Nifedipine (10 μM, L-type), ω-Conotoxin-GVIA (500 nM, […]) (Feng, et al., 2001), SNX482 (200 nM, R-type) (Newcomb et al., 1998), ω-agatoxin (200 nM, P/Q-type) (Mintz et al., 1992), TTA-P2 (1 μM, T-type) (Choe et al., 2011).
Normalization of currents to each cell's capacitance (pF) was performed to allow for collection of current density data. For I-V curves, functions were fitted to data using a non-linear least squares analysis. I-V curves were fitted using double Boltzmann functions:
where x is the pre-pulse potential, V1/2 is the mid-point potential, and k is the corresponding slope factor for single Boltzmann functions. Double Boltzmann fits were used to describe the shape of the curve, not to imply the existence of separate channel populations. Numbers 1 and 2 simply indicate first and second mid-points; a along with g are fitting parameters.
Activation curves were obtained from the I-V curves by dividing the peak current at each depolarizing step by the driving force according to the equation: G=I/(Vmem-Erev), where I is the peak current, Vmem is the membrane potential and Erev is the reversal potential. The conductance (G) was normalized against the maximum conductance (Gmax). For total and the different subtypes of Ca^2+ currents, steady-state inactivation (SSI) curves were obtained by applying an H-infinity protocol that consisted of 1.5-seconds conditioning pre-pulses from −100 to +30 mV in 10-mV increments followed by a 20-millisecond test pulse to +10 mV. For Na^+ currents, SSI curves were obtained by applying an H-infinity protocol that consisted of 1-second conditioning pre-pulses from −120 to +10 mV in 10-mV increments followed by a 200-millisecond test pulse to +10 mV. Inactivation curves were obtained by dividing the peak current recorded at the test pulse by the maximum current (Imax). Activation and SSI curves were fitted with the Boltzmann equation.

[2] = 20 μM overnight, mean ± SEM (n cells)

CC(=O)N[C@@H]1CCCN(C(=O)NCCCNc2ccccn2)C1 [CBD3063, (3R)-3-acetamido-N-[3-(pyridin-2-ylamino)propyl]piperidine-1-carboxamide]
expression of phosphorylated CRMP2 at site 514 (GSK-3β) (CRMP2): no differences | expression of phosphorylated CRMP2 at site 522 (Cdk5) (CRMP2): no differences | expression of phosphorylated CRMP2 at site 555 (RhoK) (CRMP2): no differences | effect on Ca2+ influx through Cav1 (L-type) channels (current density-voltage curve, peak current density) ([1]; 20 μM overnight vs 0.1% DMSO): does not alter | L-type Ca2+ currents, activation V1/2 [1, 2]: −2.704 ± 0.710 (7) mV | L-type Ca2+ currents, activation k (slope factor) [1, 2]: 5.528 ± 0.615 (7) | L-type Ca2+ currents, inactivation V1/2 [1, 2]: −10.128 ± 2.133 (7) mV | L-type Ca2+ currents, inactivation k (slope factor) [1, 2]: −4.961 ± 1.976 (7)
